Laboratory results as given in patent publication US9085555B2, “Complement pathway modulators and uses thereof” (priority 2011, dated 2015).

Target: Factor D (Homo sapiens (Human), UniProt P00746)
Assay: biochemical
Format: biochemical
Settings: read-out: IC50

Chain of Factor D (P00746 26-253): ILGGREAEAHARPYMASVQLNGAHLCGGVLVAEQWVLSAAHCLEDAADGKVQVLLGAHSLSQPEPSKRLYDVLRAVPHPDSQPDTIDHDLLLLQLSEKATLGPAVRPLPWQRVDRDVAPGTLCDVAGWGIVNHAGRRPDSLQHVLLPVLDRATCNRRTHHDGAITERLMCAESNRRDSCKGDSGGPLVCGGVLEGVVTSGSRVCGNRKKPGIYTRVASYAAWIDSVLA

Going from `CO[C@H]1[C@@H](C(=O)NCc2cccc(Cl)c2F)N(C(=O)Cn2nc(C(C)=O)c3ccncc32)C[C@@H]1F` [Example 682, (2S,3S,4S)-1-[2-(3-Acetyl-pyrazolo[3,4-c]pyridin-1-yl)-acetyl]-4-fluoro-3-methoxy-pyrrolidine-2-carboxylic acid 3-chloro-2-fluoro-benzylamide] to `CCc1cc2c(C(N)=O)nn(CC(=O)N3C[C@H](F)[C@@H](OC)[C@H]3C(=O)NCc3cccc(Cl)c3F)c2cn1` [Example 697, 1-{2-[(2S,3S,4S)-2-(3-Chloro-2-fluoro-benzylcarbamoyl)-4-fluoro-3-methoxy-pyrrolidin-1-yl]-2-oxo-ethyl}-5-ethyl-1H-pyrazolo[3,4-c]pyridine-3-carboxylic acid amide], the IC50 falls from 0.012 µM to 0.003 µM (4-fold).

Compared with `NC(=O)c1nn(CC(=O)N2[C@@H]3C[C@@H]3C[C@H]2C(=O)Nc2cccc(-c3ccccc3F)c2F)c2cnccc12` [Example 684, 1-{2-[(1R,3S,5R)-3-(2,2′-Difluoro-biphenyl-3-ylcarbamoyl)-2-aza-bicyclo[3.1.0]hex-2-yl]-2-oxo-ethyl}-1H-pyrazolo[3,4-c] pyridine-3-carboxylic acid amide], `NC(=O)c1nn(CC(=O)N2[C@@H]3C[C@@H]3C[C@H]2C(=O)Nc2cccc(-c3ccccc3Cl)c2F)c2cnccc12` [Example 685, 1-{2-[(1R,3S,5R)-3-(2′-Chloro-2-fluoro-biphenyl-3-ylcarbamoyl)-2-aza-bicyclo[3.1.0]hex-2-yl]-2-oxo-ethyl}-1H-pyrazolo[3,4-c] pyridine-3-carboxylic acid amide] is 5.4-fold lower in IC50: 0.027 µM for the first, 0.005 µM for the second.

First: NC(=O)c1nn(CC(=O)N2[C@@H]3C[C@@H]3C[C@H]2C(=O)Nc2cccc(-c3ncccc3F)c2F)c2ccccc12 [Example 686, 1-(2-{(1R,3S,5R)-3-[2-Fluoro-3-(3-fluoro-pyridin-2-yl)-phenylcarbamoyl]-2-aza-bicyclo[3.1.0]hex-2-yl}-2-oxo-ethyl)-1H-indazole-3-carboxylic acid amide]
Second: Cc1cccnc1-c1cccc(NC(=O)[C@@H]2C[C@H]3C[C@H]3N2C(=O)Cn2nc(C(N)=O)c3ccncc32)c1F [Example 687, 1-(2-{(1R,3S,5R)-3-[2-Fluoro-3-(3-methyl-pyridin-2-yl)-phenylcarbamoyl]-2-aza-bicyclo[3.1.0]hex-2-yl}-2-oxo-ethyl)-1H-pyrazolo[3,4-c] pyridine-3-carboxylic acid amide]
The IC50 of the first is 3.3-fold lower: 0.03 µM for the first, 0.098 µM for the second. The first is the more potent here.

`NC(=O)c1nn(CC(=O)N2[C@@H]3C[C@@H]3C[C@H]2C(=O)Nc2cccc(-c3ncccc3Cl)c2F)c2cnccc12` [Example 688, 1-(2-{(1R,3S,5R)-3-[3-(3-Chloro-pyridin-2-yl)-2-fluoro-phenylcarbamoyl]-2-aza-bicyclo[3.1.0]hex-2-yl}-2-oxo-ethyl)-1H-pyrazolo[3,4-c] pyridine-3-carboxylic acid amide] and `NC(=O)c1nn(CC(=O)N2[C@@H]3C[C@@H]3C[C@H]2C(=O)NCc2cccc(Cl)c2F)c2cnccc12` [Example 703, 1-(2-((1R,3S,5R)-3-((3-Chloro-2-fluorobenzyl)carbamoyl)-2-azabicyclo[3.1.0]hexan-2-yl)-2-oxoethyl)-1H-pyrazolo[3,4-c]pyridine-3-carboxamide] are the same in IC50: 0.01 µM for the first, 0.01 µM for the second.

Compared with `COC(=O)c1ccc2c(C(C)=O)cn(CC(=O)N3[C@@H]4C[C@@H]4C[C@H]3C(=O)NCc3cccc(Cl)c3F)c2n1` [Example 689, 3-Acetyl-1-{2-[(1R,3S,5R)-3-(3-chloro-2-fluoro-benzylcarbamoyl)-2-aza-bicyclo[3.1.0]hex-2-yl]-2-oxo-ethyl}-1H-pyrrolo[2,3-b] pyridine-6-carboxylic acid methyl ester], `CC(=O)c1cn(CC(=O)N2[C@@H]3C[C@@H]3C[C@H]2C(=O)NCc2cccc(Cl)c2F)c2nc(C(=O)O)ccc12` [Example 704, 3-Acetyl-1-{2-[(1R,3S,5R)-3-(3-chloro-2-fluoro-benzylcarbamoyl)-2-aza-bicyclo[3.1.0]hex-2-yl]-2-oxo-ethyl}-1H-pyrrolo[2,3-b]pyridine-6-carboxylic acid] is 6.8-fold lower in IC50: 0.156 µM for the first, 0.023 µM for the second.

Compared with `C[C@@H](NC(=O)[C@@H]1C[C@@H](F)CN1C(=O)Cn1nc(C(N)=O)c2ccncc21)c1cccc(Cl)c1F` [Example 690, 1-(2-{(2S,4R)-2-[(R)-1-(3-Chloro-2-fluoro-phenyl)-ethylcarbamoyl]-4-fluoro-pyrrolidin-1-yl}-2-oxo-ethyl)-1H-pyrazolo[3,4-c]pyridine-3-carboxylic acid amide], `Cc1cc2c(C(N)=O)nn(CC(=O)N3C[C@H](F)C[C@H]3C(=O)N[C@H](C)c3cccc(Cl)c3F)c2cn1` [Example 691, 1-(2-{(2S,4R)-2-[(R)-1-(3-Chloro-2-fluoro-phenyl)-ethylcarbamoyl]-4-fluoro-pyrrolidin-1-yl}-2-oxo-ethyl)-5-methyl-1H-pyrazolo[3,4-c] pyridine-3-carboxylic acid amide] is 2-fold higher in IC50: 0.034 µM for the first, 0.068 µM for the second.

First: NC(=O)c1nn(CC(=O)N2[C@@H]3C[C@@H]3C[C@H]2C(=O)NCc2cccc(Cl)c2F)c2ccccc12 [Example 692, 1-{2-[(1R,3S,5R)-3-(3-Chloro-2-fluoro-benzylcarbamoyl)-2-aza-bicyclo[3.1.0]hex-2-yl]-2-oxo-ethyl}-1H-indazole-3-carboxylic acid amide]
Second: NC(=O)c1nn(CC(=O)N2[C@@H]3C[C@@H]3C[C@H]2C(=O)NCc2cccc(Cl)c2F)c2c[n+]([O-])ccc12 [Example 705, 3-Carbamoyl-1-(2-((1R,3S,5R)-3-(3-chloro-2-fluorobenzylcarbamoyl)-2-azabicyclo[3.1.0]hexan-2-yl)-2-oxoethyl)-1H-pyrazolo[3,4-c]pyridine 6-oxide]
The IC50 of the first is 7-fold lower: 0.003 µM for the first, 0.021 µM for the second. The first is the more potent here.

Going from `Cc1nccc2c(C(N)=O)nn(CC(=O)N3[C@@H]4C[C@@H]4C[C@H]3C(=O)N[C@H](C)c3cccc(Cl)c3F)c12` [Example 693, 1-(2-{(1R,3S,5R)-3-[(R)-1-(3-Chloro-2-fluoro-phenyl)-ethylcarbamoyl]-2-aza-bicyclo[3.1.0]hex-2-yl}-2-oxo-ethyl)-7-methyl-1H-pyrazolo[3,4-c]pyridine-3-carboxylic acid amide] to `Cc1cc2c(C(N)=O)nn(CC(=O)N3[C@@H]4C[C@@H]4C[C@H]3C(=O)N[C@H](C)c3cccc(Cl)c3F)c2c(C)n1` [Example 696, 1-(2-{(1R,3S,5R)-3-[(R)-1-(3-Chloro-2-fluoro-phenyl)-ethylcarbamoyl]-2-aza-bicyclo[3.1.0]hex-2-yl}-2-oxo-ethyl)-5,7-dimethyl-1H-pyrazolo[3,4-c]pyridine-3-carboxylic acid amide], the IC50 rises from 0.006 µM to 0.101 µM (17-fold).

`Cc1nccc2c(C(N)=O)nn(CC(=O)N3[C@@H]4C[C@@H]4C[C@H]3C(=O)NCc3cccc(Cl)c3F)c12` [Example 694, 1-{2-[(1R,3S,5R)-3-(3-Chloro-2-fluoro-benzylcarbamoyl)-2-aza-bicyclo[3.1.0]hex-2-yl]-2-oxo-ethyl}-7-methyl-1H-pyrazolo[3,4-c]pyridine-3-carboxylic acid amide] and `Cc1cc2c(C(N)=O)nn(CC(=O)N3[C@@H]4C[C@@H]4C[C@H]3C(=O)NCc3cccc(Cl)c3F)c2c(C)n1` [Example 695, 1-{2-[(1R,3S,5R)-3-(3-Chloro-2-fluoro-benzylcarbamoyl)-2-aza-bicyclo[3.1.0]hex-2-yl]-2-oxo-ethyl}-5,7-dimethyl-1H-pyrazolo[3,4-c]pyridine-3-carboxylic acid amide] are within 1.5-fold of each other in IC50: 0.017 µM for the first, 0.015 µM for the second.

Going from `C[C@@H](NC(=O)[C@@H]1C[C@H]2C[C@H]2N1C(=O)Cn1nc(C(N)=O)c2cc(C(F)(F)F)ncc21)c1cccc(Cl)c1F` [Example 699, 1-(2-{(1R,3S,5R)-3-[(R)-1-(3-Chloro-2-fluoro-phenyl)-ethylcarbamoyl]-2-aza-bicyclo[3.1.0]hex-2-yl}-2-oxo-ethyl)-5-trifluoromethyl-1H-pyrazolo[3,4-c]pyridine-3-carboxylic acid amide] to `C[C@@H](NC(=O)[C@@H]1C[C@H]2C[C@H]2N1C(=O)Cn1nc(C(N)=O)c2cc(C3CC3)ncc21)c1cccc(Cl)c1F` [Example 701, 1-(2-{(1R,3S,5R)-3-[(R)-1-(3-Chloro-2-fluoro-phenyl)-ethylcarbamoyl]-2-aza-bicyclo[3.1.0]hex-2-yl}-2-oxo-ethyl)-5-cyclopropyl-1H-pyrazolo[3,4-c]pyridine-3-carboxylic acid amide], the IC50 falls from 0.118 µM to 0.015 µM (7.9-fold). The second is the more potent here.

First: NC(=O)c1nn(CC(=O)N2[C@@H]3C[C@@H]3C[C@H]2C(=O)NCc2cccc(Cl)c2F)c2cnc(C3CC3)cc12 [Example 700, 1-{2-[(1R,3S,5R)-3-(3-Chloro-2-fluoro-benzylcarbamoyl)-2-aza-bicyclo[3.1.0]hex-2-yl]-2-oxo-ethyl}-5-cyclopropyl-1H-pyrazolo[3,4-c]pyridine-3-carboxylic acid amide]
Second: C[C@@H](NC(=O)[C@@H]1C[C@H]2C[C@H]2N1C(=O)Cn1nc(C(N)=O)c2cc[n+]([O-])cc21)c1cccc(Cl)c1F [Example 706, 3-Carbamoyl-1-(2-((1R,3S,5R)-3-((R)-1-(3-chloro-2-fluorophenyl)ethyl-carbamoyl)-2-azabicyclo[3.1.0]hexan-2-yl)-2-oxoethyl)-1H-pyrazolo[3,4-c]pyridine 6-oxide]
The IC50 of the first is 7.5-fold lower: 0.006 µM for the first, 0.045 µM for the second.

Compared with `NC(=O)c1nn(CC(=O)N2[C@@H]3C[C@@H]3C[C@H]2C(=O)Nc2cccc(OC(F)(F)F)c2F)c2ccccc12` [Example 707, 1-{2-[(1R,3S,5R)-3-(2-Fluoro-3-trifluoromethoxy-phenylcarbamoyl)-2-aza-bicyclo[3.1.0]hex-2-yl]-2-oxo-ethyl}-1H-indazole-3-carboxylic acid amide], `NC(=O)c1nn(CC(=O)N2[C@@H]3C[C@@H]3C[C@H]2C(=O)Nc2cccc(OC(F)(F)F)c2F)c2ccncc12` [Example 709, 1-(2-((1R,3S,5R)-3-(2-fluoro-3-(trifluoromethoxy)phenylcarbamoyl)-2-azabicyclo[3.1.0]hexan-2-yl)-2-oxoethyl)-1H-pyrazolo[4,3-c] pyridine-3-carboxamide] is 1.6-fold higher in IC50: 0.088 µM for the first, 0.144 µM for the second.

`NC(=O)c1nn(CC(=O)N2C[C@H](F)C[C@H]2C(=O)Nc2cccc(OC(F)(F)F)c2F)c2ccccc12` [Example 708] and `COC(=O)c1ccc2c(C(C)=O)nn(CC(=O)N3[C@@H]4C[C@@H]4C[C@H]3C(=O)Nc3cccc(OC(F)(F)F)c3F)c2c1` [Example 710, Methyl 3-acetyl-1-(2-((1R,3S,5R)-3-(2-fluoro-3-(trifluoromethoxy)phenylcarbamoyl)-2-azabicyclo [3.1.0]hexan-2-yl)-2-oxoethyl)-1H-indazole-6-carboxylate] are within 1.5-fold of each other in IC50: 0.054 µM for the first, 0.052 µM for the second.
